“Also recorded” adds a separate entry of the source.
Experiments:
healthy pig model = assay: Cardiac function by echocardiography in healthy porcine model; format: in vivo
HL-1 cells = format: cell-based
Description: Cell Viability Assays—Cell viability was assessed using the ApoTox-Glo Triplex Assay (Promega, Madison, Wis.) per manufacturer's instructions. Briefly, HL-1 cells were seeded in 96 well plates at a density of 1×10^4 cells/well and allowed to grow overnight in Claycomb media supplemented with 10% FBS, 100 U/ml penicillin/streptomycin, and 2 mM L-glutamine. […] GF-AFC viability was then added to ApoTox-Glo Assay Buffer at a ratio of 10 μl GF-AFC to 2.0 ml Assay Buffer and 20 μl of this mixture was added to each well and cells were incubated at 37° C. for 30 minutes. Fluorescence was measured at 400 nm (ex)/505 nm (em) and the data was normalized to untreated control cells.

[1] = tested on: isolated ventricular myocytes; assay: Myocyte contractility measurement; format: cell-based, mouse
Description: Isolation of ventricular myocytes—Hearts from WT mice (12-week old) were perfused on the Langendorff system with a modified Krebs-Henseleit buffer (KHB) composed of (mM) NaCl 118, KCl 5.4, HEPES 10, NaH2PO4 0.33, MgCl2 2, glucose 10, taurine 30, butanedione monoxime 10 (pH=7.4). Then an enzyme solution (KHB containing 0.7 mg/ml type II collagenase, 0.1% BSA and 25 μM CaCl2) was used to digest the hearts for 10 min. Finally, ventricles of the hearts were excised, minced and filtered to obtain isolated cells. After sufficient sedimentation, the supernatant was removed and the cells were resuspended. Myocyte contractility measurement—Myocytes were put on a plexiglass chamber containing a Tyrode's solution composed of (mM) NaCl 140, KCl, 5.4, MgCl2 1, CaCl2 1.8, HEPES 5, glucose 10 (pH=7.4). Myocytes were excited under 0.5 Hz field stimulation. After reaching the steady state, myocyte shortening and the rates of shortening (+dL/dt) and relengthening (−dL/dt) were imaged with a CCD camera and monitored by a video-edge detector. Drugs were dissolved in Tyrode's solution and perfused into the chamber. Data were continuously collected through the PCLAMP 9 software. Water soluble probenecid was used for all of the myocyte experiments.

TRPV2^−/− mice = assay: Contractility by echo after IP probenecid in TRPV2−/− mice; format: in vivo, mouse; settings: 100 mg/kg IP
Description: WT, TRPV2^+/−, and TRPV2^−/− mice were monitored by echo for 30 minutes after injection as described below. Echocardiography—All echocardiographic studies were performed with a Vevo 2100 Ultrasound system (Visualsonics, Toronto Calif.) with an MS400 probe (30 MHz centerline frequency) and were post-processed at a separate workstation with Vevostrain software (Vevo 2100, v1.1.1 B1455, Visualsonic, Toronto, Canada). Images were obtained from PSLAX and short axis (SAX) views at depths between 2 and 10 mm in both M-mode and B-mode. All studies on mice exposed to I/R injury included M-mode, B-mode in PSLAX and strain imaging in SAX. While for the contractility studies, only M-mode measurements were obtained from the PSLAX. Strain imaging was performed from the B-mode images and regional radial strain and circumferential displacement were measured by regional wall and summed average from the SAX images. From the M-mode images, left ventricular cavity size and wall thickness was measured and the ejection fraction (EF) and fractional shortening (FS) calculations were obtained using the Vevo software. […] In addition, the average change from baseline for each time point between 5 and 30 minutes was determined for each mouse, with measurements being taken every 5 minutes. […]

[2] = tested on: phospholamban (PLN) and the ryanodine receptor (RyR), NCX, SERCA2a; assay: Western blot of calcium handling proteins in Langendorff hearts; parameters: species or system mouse
Source text: Western Blot Analysis—WT hearts used for protein expression were isolated from control mice (C57, 12-16 weeks old) from the Langendorff experiments. Total protein for calcium handling proteins was isolated by homogenizing whole hearts in an ice-cold buffer containing (in mM): 80 Imidazole, 300 sucrose, 1 DTT, 10 sodium metabisulfite, the protease inhibitor cocktail P8340 (Sigma, St. Louis, Mo.) and the phosphatase inhibitor cocktail set II (EMD, Merck, Darmstadt, Germany). Protein concentrations were determined using the BCA Protein Assay kit (Pierce, Thermo Scientific, Rockford, Ill.). Aliquots of protein were separated on SDS-PAGE gels (Novex gels, Invitrogen, Eugene, Oreg.) and then transferred to nitrocellulose membranes (Bio-Rad, Hercules, Calif.) and blocked with 5% BSA. The membranes were analyzed with primary antibodies. When appropriate, the membranes were cut in half to allow two different primary antibodies to be used. The top half would be used for one of the Ca^2+ handling proteins and the bottom half (less than 60 kD) would be used for the normalization protein, actin. In circumstances where it wasn't appropriate to cut the membrane, as the two proteins were too close in size, the membranes were stripped after the first protein. Membranes were also stripped between primary antibodies for phosphorylated proteins and corresponding total protein.

mice subjected to I/R = assay: Probenecid bolus followed by Ischemia/Reperfusion (infarct size, echocardiography); format: in vivo, mouse; settings: IV pretreatment
Description: Ischemia/Reperfusion methods—Mice were anesthetized with sodium pentobarbital and the heart exposed through a left thoracotomy at the level of the fourth intercostal space. The mice were intubated and placed on a mini-ventilator (Harvard apparatus, Holliston, Mass.). A loop occluder was placed around the left anterior descending artery (LAD), and tightened, occluding it for either 30 minutes or 45 minutes. After surgery, the thorocotomy was sutured in layers, and the animal was allowed to recover. […] At twenty-four hours post-I/R, echocardiography was performed and the hearts subsequently removed for determination of infarct size and normalized to the risk region.

[3] = tested on: subjects with uncomplicated congestive heart failure; settings: 2 g/day or 4 g/day orally over several days; cited from earlier work
[4] = tested on: Langendorff perfused hearts of WT mice; assay: Ex vivo (Langendorff) perfused isolated heart; parameters: species or system mouse; settings: 10^−6 M perfusion
Description: Ex vivo (Langendorff) studies—Isolated heart experiments were performed as previously described on WT mice. […] Measurements were taken every second.

For CCCN(CCC)S(=O)(=O)c1ccc(C(=O)O)cc1 [probenecid], the “cardiac function (EF) by echocardiography” value (healthy pig model; bolus of 5 mg/kg IV, 5 mg/kg) was “rapid increase in EF”, the “cardiac function by echocardiography” value (healthy pig model; continuous drip 5 mg/kg/hr (first 60 minutes) and 10 mg/kg/hr (second thirty minutes)) was “improves function; also recorded: improvement in cardiac function” and the “cytotoxicity / cell death” value (HL-1 cells; increasing doses, 4, 8 or 24 hours following treatment) was “does not result in any detectable cytotoxicity; also recorded: no significant cell death”. The “cell death in HL-1 cells (Example 3 summary)” value (HL-1 cells; probenecid at supraphysiological, isoproterenol at clinically relevant concentrations) was “no cell death”, the “increase of myocyte fractional shortening (FS)” value ([1]; 0.1 μM, 0.5 Hz, room temp, n=6) was 30.8±1.4% and the “myocyte fractional shortening (FS)” value ([1]; 0.1 μM, 0.5 Hz, room temp, from 6.9% control) was 9.0%. For the same compound, the “myocyte fractional shortening (FS)” value ([1]; 3 Hz and 32° C., n=4, from 10.1% control) was 13.9%, the EC50 ([1]; Mus musculus, Ventricular myocyte, isolated ventricular myocytes, averages from 4 mice, read-out: EC50 of dose-response curve on myocyte contractility) was 1.6 nM and the “maximum +dL/dt (rate of shortening)” value ([1]; room temperature, n=10, from 80.6±12.3) was 112.5±16.6 μm/sec. For the same compound, the “−dL/dt (rate of relengthening)” value ([1]; room temperature, from 57.7±7.4) was 77.6±8.7 μm/sec, the “cardiac response (contractility) during 30 minutes of echocardiogram” value (TRPV2^−/− mice) was “no discernable cardiac response; also recorded: absolutely no change in function” and the “expression levels of NCX and SERCA2a” value ([2]; hearts after 10^−6 M perfusion, data not shown) was “no changes were found in the expression levels”. For the same compound, the “amount of phosphorylated or total phospholamban or ryanodine receptor” value ([2]; hearts after 5 minute perfusion of 10^−6 M) was “no significant changes”, the “systolic function (EF and global circumferential strain), pretreated vs saline” value (mice subjected to I/R; 30 and 45 minute ischemia) was “not significantly different; also recorded: no difference” and the “infarct size, pretreated vs saline control” value (mice subjected to I/R; 30 and 45 minute ischemia, 24 hours of reperfusion) was “not significantly different; also recorded: no difference”. For the same compound, the “radial displacement of the anterior wall” value (mice subjected to I/R; 30 minutes ischemia, saline 0.43±0.02) was 0.46±0.06 mm, the “radial displacement of the anterior wall” value (mice subjected to I/R; 45 minutes ischemia, saline 0.36±0.03) was 0.35±0.06 mm and the “radial displacement, pretreated vs control” value (mice subjected to I/R; either time point) was “no difference between the treatment groups”. The diuretic effect [3] was “strong diuretic effect”, the “change in average +dP/dt over time” value ([4]; paced 400 bpm) was “statistically significant from 90 to 210 seconds; also recorded: significantly different from baseline” and the “relaxation (−dP/dt)” value ([4]; increased from 1812±158, P<0.01) was 2309±133.
